Assay results as given in patent publication US6551632B2, “Methods and compositions for treating inflammatory bowel disease” (priority 1997, dated 2003).

System: Patients with Inflammatory Bowel Disease
Experiment: Treatment of patients with inflammatory bowel disease using a combination of anti-atypical mycobacterial agents (Example 1)
Method: Fifteen patients, aged 13 to 58, were treated with various protocols of antimycobacterial agents. Twelve patients had Crohn's disease and three ulcerative colitis. Presence of Mycobacterium paratuberculosis was identified in nine of these patients. A combination of clarithromycin (250 mg to 1.5 grams per day), rifabutin (150 mg to 750 mg per day) and clofazimine (3 mg/kg to 10 mg/kg) was used.
After four months of treatment, five patients were examined colonoscopically.
In these three patients, a combination of clarithromycin and rifabutin (same dosages as above) together with added clofazimine, 2 mg per kg, made up a preferred therapy. […] No prednisone, azathioprine or 5ASA compounds were used. […] This dose was increased at one stage to 50 mg per kg in an attempt to reverse the inflammatory process and then reduced to 10 mg per kg. […] In yet a further patient four drugs were used simultaneously because of resistance to clarithromycin. Azithromycin, 500 mg each morning (range 250-1,500 mg) was used in combination with rifabutin, clofazimine, and ethambutol.

SMILES | sensitivity (adverse reaction) (one patient on the combination therapy) | clinical response after rifabutin was changed to ethambutol (one patient, ethambutol 400 mg twice daily, raised to 50 mg per kg, then 10 mg per kg, with clarithromycin and clofazimine)
CO[C@H]1/C=C/O[C@@]2(C)Oc3c(C)c(O)c4c(c3C2=O)C2=NC3(CCN(CC(C)C)CC3)NC2=C(NC(=O)/C(C)=C\C=C\[C@H](C)[C@H](O)[C@@H](C)[C@@H](O)[C@@H](C)[C@H](OC(C)=O)[C@@H]1C)C4=O [rifabutin] | marked headaches and fever | 
CC[C@@H](CO)NCCN[C@@H](CC)CO [ethambutol] |  | reversal of the inflammatory process with loss of diarrhoea, loss of bleeding, and ultimately loss of urgency
